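Interpolation was linear, between the two tested concentrations surrounding the appropriate level; five concentrations were tested over 48 hours in 96-well plates. GI50: concentration for 50% inhibition of growth.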 The source made the active and inactive calls. No stated cut-off is given here; in the data, active = GI50 up to about 1.1 µM and inactive = higher.
Key:
Assay in all cases: NCI anticancer screen, dose series, 48 h
[1] = system: SK-MEL-5
[2] = system: UO-31
[3] = system: OVCAR-8
[4] = system: SK-OV-3
[5] = system: UACC-62
[6] = system: HCT-116
[7] = system: OVCAR-3
[8] = system: SNB-19
[9] = system: ACHN
[10] = system: NCI-H460
[11] = system: K562
[12] = system: OVCAR-4
[13] = system: COLO 205
[14] = system: RXF 393
[15] = system: NCI-H23
[16] = system: SF-268
[17] = system: SK-MEL-28
[18] = system: SF-539
[19] = system: MCF7

Measured: GI50

CS(=O)(=O)c1nc(-c2cc3c(c(S(C)(=O)=O)n2)CCC3)cc2c1CCC2
inactive: [1] > 100 µM | [2] > 100 µM | [3] 74.5 µM | [4] > 100 µM | [5] > 100 µM | [6] > 100 µM | [7] > 100 µM | [8] 67.5 µM | [9] > 100 µM | [10] > 100 µM | [11] > 100 µM | [12] > 100 µM | [13] > 100 µM | [14] 33.7 µM | [15] > 100 µM | [16] 44.3 µM | [17] > 100 µM | [18] > 100 µM

COc1cccc2c1OC1c3ccccc3OCC1C2 (centres undefined)
inactive: [1] 35.7 µM | [2] 48 µM | [3] > 100 µM | [4] > 100 µM | [5] > 100 µM | [6] 74.6 µM | [7] > 100 µM | [19] > 100 µM | [11] > 100 µM | [13] > 100 µM | [15] > 100 µM | [16] > 100 µM | [18] > 100 µM

COc1cc2c(cc1OC)C(=O)C1(C2)[C@H](c2ccccc2)C2C(=O)c3cc(OC)c(OC)cc3C2[C@H]1c1ccccc1 (some centres undefined)
inactive: [1] > 100 µM | [2] > 100 µM | [3] > 100 µM | [4] > 100 µM | [5] > 100 µM | [6] > 100 µM | [7] > 100 µM | [8] > 100 µM | [9] 25.8 µM | [10] 49.1 µM | [11] > 100 µM | [12] > 100 µM | [13] > 100 µM | [14] 63.5 µM | [15] > 100 µM | [16] > 100 µM | [17] > 100 µM | [18] > 100 µM

COc1cc(N)c2[nH]c3c(C)ccc(C)c3c2c1
inactive: [1] > 100 µM | [2] > 100 µM | [3] > 100 µM | [6] > 100 µM | [7] > 100 µM | [8] > 100 µM | [9] > 100 µM | [10] > 100 µM | [11] > 100 µM | [12] > 100 µM | [13] > 100 µM | [15] > 10 µM | [16] > 100 µM | [17] > 100 µM | [18] > 100 µM

O=c1[nH]nc(Nc2ccc(Cl)cc2)c2nnn(-c3ccc([N+](=O)[O-])cc3)c12
inactive: [1] 10.8 µM | [3] 16.2 µM | [6] 13.9 µM | [8] 30.9 µM | [9] 43.3 µM | [10] 30.6 µM | [19] 16.6 µM | [11] 6.35 µM | [12] 23.8 µM | [13] 13.3 µM | [15] 8.59 µM | [16] 24.3 µM | [18] 17.5 µM

O=C1/C(=C/c2cccs2)NC(=S)N1CN1CCOCC1
inactive: [1] > 100 µM | [2] > 100 µM | [3] > 100 µM | [4] > 100 µM | [5] > 100 µM | [6] > 100 µM | [7] > 100 µM | [8] > 100 µM | [9] > 100 µM | [19] > 100 µM | [11] > 100 µM | [13] > 100 µM | [15] > 100 µM | [16] > 100 µM | [17] > 100 µM

COc1ccc(-c2c(-c3ccccc3)c(C)c3ccccn23)cc1
inactive: [1] 77.8 µM | [2] > 100 µM | [3] > 100 µM | [4] > 100 µM | [5] > 100 µM | [6] 72.3 µM | [7] > 100 µM | [8] > 100 µM | [9] > 100 µM | [10] 59.2 µM | [19] 57.7 µM | [11] 50 µM | [12] > 100 µM | [13] 80.4 µM | [15] > 100 µM | [17] 79.8 µM | [18] > 100 µM

CCCc1c(O)nc2ccccc2c1O
inactive: [1] > 100 µM | [2] > 100 µM | [3] > 100 µM | [6] > 100 µM | [7] > 100 µM | [8] > 100 µM | [9] > 100 µM | [10] > 100 µM | [19] > 100 µM | [11] > 100 µM | [12] > 100 µM | [13] > 100 µM | [15] > 100 µM | [17] > 100 µM | [18] > 100 µM

Cc1cc2c(c(/C=N/c3ccccc3O)c1)OC1(C=C2)Oc2ccccc2C(=O)N1C (centres undefined)
inactive: [1] 15.2 µM | [2] 10.6 µM | [3] 17.7 µM | [4] 24.4 µM | [5] 17.8 µM | [6] 14.3 µM | [7] 12.8 µM | [8] 24.7 µM | [9] 14.2 µM | [10] 16.7 µM | [11] 12.3 µM | [12] 23.1 µM | [13] 22.9 µM | [14] 13 µM | [15] 17.8 µM | [16] 14.4 µM | [17] 18.3 µM

Cn1c(=O)cc(N2CCCC2)[nH]c1=O
inactive: [1] > 100 µM | [3] > 100 µM | [6] > 100 µM | [8] > 100 µM | [9] > 100 µM | [10] > 100 µM | [19] > 100 µM | [11] > 100 µM | [12] > 100 µM | [13] > 100 µM | [15] > 100 µM | [16] 74.1 µM | [17] > 100 µM | [18] > 100 µM

CCC(C)[C@H](NC(=O)N[C@H](C)c1ccccc1)C(=O)OC (some centres undefined)
inactive: [1] > 100 µM | [2] > 100 µM | [3] > 100 µM | [4] > 100 µM | [5] > 100 µM | [6] > 100 µM | [7] > 100 µM | [8] > 100 µM | [9] > 100 µM | [10] > 100 µM | [19] > 100 µM | [11] > 100 µM | [12] > 100 µM | [13] > 100 µM | [15] > 100 µM | [17] > 100 µM | [18] 25.8 µM

Cn1cc(S(=O)(=O)NC(=O)Nc2ccc(Cl)cc2)c(=O)c2ccc(F)cc21
inactive: [1] > 100 µM | [2] > 100 µM | [3] > 100 µM | [4] > 100 µM | [5] 3.01 µM | [6] > 100 µM | [8] > 100 µM | [9] > 100 µM | [10] > 100 µM | [11] > 100 µM | [12] > 100 µM | [13] > 100 µM | [14] > 100 µM | [15] > 100 µM | [16] > 100 µM | [17] > 100 µM | [18] > 100 µM

O=c1c(C(c2ccc(/C=C/c3ccccc3)cc2)c2c(O)oc3ccccc3c2=O)c(O)oc2ccccc12
inactive: [1] 26.5 µM | [2] 18.6 µM | [3] 20.2 µM | [5] 35.6 µM | [6] 29.6 µM | [7] 36 µM | [8] 46.9 µM | [9] 18.8 µM | [10] 24.5 µM | [11] > 100 µM | [12] 35.6 µM | [13] 22.6 µM | [15] 28.1 µM | [16] 22.4 µM | [17] 33.3 µM

— ChEMBL document CHEMBL1201862, “PubChem BioAssay data set” (2004)
